Earlier results, collected in patent EP0606683B1, “Means for diagnosis of angiogenic diseases” (INSTITUT FÜR DIAGNOSTIKFORSCHUNG GmbH AN DER FREIEN …, priority 1993, dated 2003).

Key:
[1] = test system: humanen atheromatösen Koronararterien; settings: in vitro incubation; Dashwood et al., 1991
[2] = test system: deendothelisierten Bereichen der Aorta; settings: rabbit, abdominal aorta de-endothelialised by balloon catheter; Kurata et al. 1992

## ^125I-Endothelin 1: ^125I-labelled Endothelin 1, ein Polypeptid aus 21 Aminosäuren; used in cited literature studies
[1]
  Bindung von ^125I-Endothelin 1 im Bereich der Tunica media sowie in Bereichen der Vasa vasora: vermehrte Bindung
[2]
  Aufnahme von ^125I-Endothelin 1 in den deendothelisierten Bereichen der Aorta: vermehrte Aufnahme
